# Entries after “also recorded” stand apart in the source; their conditions may differ.
# Tested on: primary human nasal epithelial cells (HNECs)
# Assay: Multiciliated cell (MCC) formation in HNEC air-liquid interface (ALI) cultures
# Type: cell-based
# Conditions: for multiciliated cell formation by apical versus basal application: ALI+0 to +21d from either the apical or basal surface; for ratio MCC number/total luminal cells: labeled at ALI+21 d, vs untreated, p<0.01 by ANOVA; for number of multiciliated cells, apical only treatment of submerged cultures: vs untreated submerged cells; for multiciliated cell numbers, treatment during differentiation: differentiation only (ALI+0 to +21d) and continuous (preALI+ALI) treatments; for multiciliated cell formation in mature cultures: mature (ALI+30d) cultures treated one (ALI+30 to +37d) or two weeks (ALI+30 to +44d); for multiciliated cell formation, treatment during proliferation only: pre-ALI only (ALI-5 to -1d); for multiciliated cell formation, treatment during proliferation only / multiciliated cell formation at the low concentration: labeled ALI+21d; for effect on Notch signaling and differentiation towards MCCs: administered in the nanomolar range to human nasal epithelial cells; for toxicity / disruption of epithelial structure at high concentration: micromolar doses (10 μM for LY450139); for multiciliated cell formation at the low concentration: low dose (based on IC50 for Notch inhibition)
# Protocol: Air-Liquid Interface (ALI) cultures were prepared as described in Vladar E K, Nayak J V, Milla C E, Axelrod J D. Airway epithelial homeostasis and planar cell polarity signaling depend on multiciliated cell differentiation. JCI Insight. 2016; 1(13); e88027. Human nasal epithelial cells (HNECs) were generated from human sinonasal epithelial brushings or from tissue obtained from patients undergoing endoscopic sinus surgery at Stanford Hospital and cultured as described in Vladar et al.
# Cultures were treated with varying doses of semagacestat. DAFT (Abcam) was used ([…]) as a positive cone ml for GSI activity. Cultures were labeled at ALI+21 d with anti-acetylated α-tubulin (green) and ECAD (red) antibodies to mark cilia and epithelial junctions. […] The ratio was defined as MCC number/total luminal cells. Counting was done on one representative image from 5 culture replicates from a single donor.
# Primary human airway epithelial cells were treated with DAPT and LY45139: i) during proliferation only (ALI-5 to -Id), ii) during differentiation only (ALI+0 to +21d) or iii) continuously during the entire culture duration, followed by labeling at ALI+21d with anti-acetylated α-Tubulin (green) and ECAD (red) antibodies.
# Mature (ALI+30d) primary human airway epithelial cells were treated with DAFT and semagacestat for one (ALI+30 to +37d) or two weeks (ALI+30 to +44d), then labeled with anti-acetylated α-Tubulin (green) and ECAD (red) antibodies.
# Primary human airway epithelial cells were treated with DAFT and LY45139 during differentiation only (ALI+0 to +21d) from either the apical or basal surface, then labeled at ALI+21d with anti-acetylated α-Tubulin (green) and ECAD (red) antibodies. […] Apical treatment eliminates the air-liquid interface, which results in the poor epithelial structure and multiciliated cell differentiation in the untreated cultures, which is partially rescued by GSI treatment.
# While this effect may be beneficial as a therapeutic, DAPT is not suitable for human use. It was sought to identify GSIs for potential therapeutic application among small molecules previously used in clinical trials that were developed to have acceptable drug-like properties. […] Healthy human nasal epithelial cell (HNEC) primary cultures were grown at air-liquid interface (ALI) in homemade culture medium to support the consistent differentiation of multiciliated cells as approximately 45-55% of the luminal cells, similar to the in vivo airways (24) (FIG. 35A, 40A). The use of homemade culture medium is important, as cultures grown in commercially available Pneumacult medium often contain 85-95% multiciliated cells at the luminal surface (FIG. S4A). HNECs were treated with a low and high dose (based on IC50 for Notch inhibition, Selleckchem) of each compound during the entire 21 days of ALI differentiation (ALI+0 to 21d). The fraction of mature multiciliated cells was quantitated using wholemount ac. α-Tubulin antibody (marks ciliary axonemes) labeling. […] DMSO control treatment had no effect on multiciliated cell number (FIG. 40A).
# HNEC primary culture comprises an initial proliferative phase when basal stem cells establish the epithelial layer under submerged culture conditions (preALI), followed by differentiation induced, in part, by lifting to ALI (30). Thus, HNECs can be used to test GSI response in both regenerative and homeostatic settings. Notch signaling between luminal cells controls epithelial cell fate, but it is also active in basal cells and regulates their differentiation and survival (14,18,31). Thus, it was asked if the GSIs LY450139 or DAFT during the proliferative preALI phase only or during the entire culture duration (proliferative+differentiation; preALI+ALI) can induce multiciliated cell formation and if GSI treatment during stem cell proliferation has detrimental effects. PreALI, GSIs was added to both the apical and basal media, and during ALI, cultures were only treated basally. […]
# [1] = ALI+0 to +21d, listed as LY45139
# [2] = ALI+0 to +21d, listed as LY450139
# [3] = treated during differentiation ALI+0 to +21d
smiles,measurement,setting,value
C[C@H](NC(=O)Cc1cc(F)cc(F)c1)C(=O)NC(C(=O)OC(C)(C)C)c1ccccc1 (stereo partly drawn) [DAPT],multiciliated cell formation by apical versus basal application,listed as DAFT,induces ciliated cell formation via both apical and basal application; also recorded: induces multiciliated cell formation via both apical and basal application
same,ratio MCC number/total luminal cells,I μM DAPT,significant increases
same,"number of multiciliated cells, apical only treatment of submerged cultures",,approximately double the number of multiciliated cells
same,"multiciliated cell numbers, treatment during differentiation",,increased MCC cell numbers; also recorded: increased multiciliated cell numbers
same,"multiciliated cell numbers, treatment during differentiation",listed as DAFT,significant increase in the proportion of multiciliated cells
same,multiciliated cell formation in mature cultures,,induces the formation of additional multiciliated cells in mature cultures
same,multiciliated cell formation in mature cultures,listed as DAFT,induces the formation of additional multiciliated cells in mature cultures; also recorded: robust induction of multiciliated cell formation
same,"multiciliated cell formation, treatment during proliferation only",,had no effect on differentiation; also recorded: no detrimental effect on multiciliated cells or overall epithelial structure
same,"multiciliated cell formation, treatment during proliferation only",listed as DAFT,not sufficient to induce extra multiciliated cell formation
O=C(O)CC[C@H]1CC[C@@](c2cc(F)ccc2F)(S(=O)(=O)c2ccc(Cl)cc2)CC1 [MK-0752],effect on Notch signaling and differentiation towards MCCs,,"effective in blocking Notch signaling, driving differentiation towards MCCs"
same,toxicity / disruption of epithelial structure at high concentration,ALI+0 to +21d,disrupted epithelial structure
same,multiciliated cell formation at the low concentration,ALI+0 to +21d,induced multiciliated cell formation; also recorded: able to induce the formation of extra multiciliated cells
"CC(C)[C@H](O)C(=O)N[C@@H](C)C(=O)N[C@@H]1C(=O)N(C)CCc2ccccc21 [semagacestat, (2S)-2-hydroxy-3-methyl-N-[(1 S)-1-methyl-2-oxo-2-[[(1 S)-2,3,4,5-tetrahydro-3-methyl-2-oxo-1H-3-benzazepin-1-yl]amino]ethyl]-butamide]",proportion of multiciliated cells,"10 μM, ALI+0 to +21d",significant decrease
same,proportion of multiciliated cells,"15.625 to 500 nM, ALI+0 to +21d",significant increase
same,multiciliated cell formation by apical versus basal application,listed as LY45139,induces ciliated cell formation via both apical and basal application
same,multiciliated cell formation by apical versus basal application,listed as LY450139,just as efficacious as basal treatment; also recorded: induces multiciliated cell formation via both apical and basal application
same,effect on Notch signaling and differentiation towards MCCs,,"effective in blocking Notch signaling, driving differentiation towards MCCs"
same,"number of multiciliated cells, apical only treatment of submerged cultures",,approximately double the number of multiciliated cells
same,"multiciliated cell numbers, treatment during differentiation",listed as LY45139,increased MCC cell numbers
same,"multiciliated cell numbers, treatment during differentiation",listed as LY450139,significant increase in the proportion of multiciliated cells; also recorded: increased multiciliated cell numbers
same,toxicity / disruption of epithelial structure at high concentration,ALI+0 to +21d,Toxicity is observed at micromolar doses
same,toxicity / disruption of epithelial structure at high concentration,[1],disrupted epithelial structure
same,toxicity / disruption of epithelial structure at high concentration,[2],disrupted the epithelial junctions; also recorded: disrupted epithelial structure
same,multiciliated cell formation at the low concentration,[1],induced multiciliated cell formation
same,multiciliated cell formation at the low concentration,[2],able to induce the formation of extra multiciliated cells; also recorded: induced multiciliated cell formation
same,dose dependence of multiciliated cell numbers,"lower (nM) concentrations, ALI+0 to +21d, listed as LY450139",increases the proportion of multiciliated cells in a dose dependent manner; also recorded: dose dependent increase in multiciliated cell numbers
same,multiciliated cell formation in mature cultures,,induces the formation of additional multiciliated cells in mature cultures
same,multiciliated cell formation in mature cultures,listed as LY450139,"robust induction of multiciliated cell formation; also recorded: able to drive multiciliated cell formation in differentiating as well as mature, homeostatic airway epithelial cultures; also recorded: induces the formation of additional multiciliated cells in mature cultures"
same,"multiciliated cell formation, treatment during proliferation only",listed as LY45139,had no effect on differentiation
same,"multiciliated cell formation, treatment during proliferation only",listed as LY450139,not sufficient to induce extra multiciliated cell formation; also recorded: no observable effect on subsequent differentiation; also recorded: no detrimental effect on multiciliated cells or overall epithelial structure
same,ratio MCC number/total luminal cells,semagacestat 500 nM to 31.25 nM,significant increases
same,concentration at which the percentage of MCCs reaches its maximum / begins to plateau,[3],around 125 nM
same,lowest concentration able to effectively increase the proportion of multiciliated cells,[3],31.25 nM
